Reference: article PMC9993459, “A novel selective spleen tyrosine kinase inhibitor SKI-O-703 (cevidoplenib) ameliorates lupus nephritis and serum-induced arthritis in murine models” (Clinical and Experimental Immunology, 2022)

How the values were obtained:
[1] = target: KOR; test: Kinase assay (LANCE Ultra TR-FRET), KOR; type: biochemical; settings: kinase activity, TR-FRET
Procedure: Kinase assays were conducted in 384-well plates using LANCE ultra 66 time-resolved fluorescence resonance energy transfer (TR-FRET) methods, according to the manufacturer’s instructions (Perkin-Elmer). In brief, each kinase was pre-incubated with a serially diluted compound for 30 min, incubated with ULight poly-GT peptide substrate and ATP for up to 1 h. Thirty minutes after adding Eu-labeled anti-phosphopeptides Ab diluted in LANCE Detection Buffer, LANCE signals were measured with an EnVision multilabel reader (Perkin-Elmer).

[2] = test system: human primary B cells; test: IgM, IgG and IL-6 secretion by stimulated human primary B cells (ELISA); type: cell-based; settings: human primary B cells
Procedure: Human CD19^+ B cells (Lonza) were pre-treated with inhibitors for 1 h and stimulated for 24 h with 50 nM CpG ODN 2006 plus 10 ng/ml IL-2 or 1 μM CpG ODN 2006 plus 20 ng/ml IFN-α. Culture supernatants were assayed by ELISA to detect secreted IgG, IgM, and IL-6, according to the manufacturer’s instructions.
(§1) Figure 2: in vitro effects of SKI-O -703 on the proliferation, survival, and differentiation of B cells. Mouse primary B cells were labeled with CP670, and stimulated with either anti-IgM mAb, CD40L and IL-4 (A) or LPS (B) for 72 h in the presence or absence of SKI-O-703 and tofacitinib at the indicated concentrations; they were then assayed by FACS. (C and D) Mouse primary B cells were cultured as in A and B for 24 h, stained with Annexin V and 7-AAD, and assayed by FACS. Representative FACS profiles and graphs displaying mean Annexin V-positivity are shown. (E) Human primary B cells were stimulated with CpG ODN plus IL-2 (to detect IgM and IgG) or CpG ODN 2006 plus IFN-α (to detect IL-6) in the presence or absence of inhibitors. The culture supernatants were assayed by ELISA. Graphs are expressed as % positivity relative to the controls (without inhibitor). The data are representative of 2–3 independent experiments. *P < 0.05, **P < 0.01, and ***P < 0.001, compared with vehicle control by two-tailed unpaired Students t-tests.

[3] = test system: mouse primary B cells; test: CP670-dilution proliferation assay, BCR crosslinking (anti-IgM) stimulated B cells; type: cell-based; settings: up to 1 μM
Procedure: Splenic CD19^+ B cells from C57BL/6 mice were sorted by MACS (Milteny Biotec), stained with 3 μM cell proliferation dye eFluor 670 (CP670; eBioscience), and cultured for 72 h in the presence of either 10 μg/ml LPS (Sigma Aldrich) or 5 μg/ml anti-mouse IgM (Jackson Immuno Research Laboratories), 10 μg/ml anti-CD40 mAb (Biolegend) and 10 ng/ml IL-4 (Peprotech), and assayed by FACS. To detect apoptotic cells, unstimulated cells were cultured for 24 h, stained with Annexin V and 7-aminoactinomycin D (7-AAD), and assayed by FACS.
as §1, with “The data are representative of 2–3 independent experiments. *P < 0.05, **P < 0.01, and ***P < 0.001, compared with vehicle control by two-tailed unpaired Students t-tests.” left out

[4] = test system: NZB/W F1 mice; test: NZB/W mouse model of SLE / lupus nephritis, oral dosing; type: in vivo; settings: 30 mpk oral once daily
Procedure: NZB/W female mice aged 18 weeks were assigned to four groups by distributing mice by body weight and anti-dsDNA IgG titer equivalently across the groups. Each group of mice was administered orally with 42 mg per kg body weight (mpk) of SKI-O-703 dissolved in 50 mM citric acid, 84 mpk of SKI-O-703, 30 mpk of tofacitinib (Selleckchem) dissolved in 0.5% carboxymethyl cellulose (Sigma Aldrich) containing 0.025% Tween 20, or a mixture of the two vehicles. The drugs were given once daily up to 34 weeks of age. Body weight was measured every 2 weeks and serum was collected every 4 weeks. At the termination of the experiments (34 weeks of age), serum, urine, spleen, BM, and kidneys were removed post mortem and assayed by histopathological and biochemical methods as below. Levels of blood urea nitrogen (BUN) and creatinine were measured by Knotus (Incheon, Korea).
Kidneys removed from the NZB/W mice were fixed in 4% paraformaldehyde, embedded in paraffin, sectioned at 3 μm thickness, and stained with periodic acid-Schiff (PAS) and hematoxylin (Sigma Aldrich). […] Glomerular size was measured using Image J software. To assess the glomerular size and hypercellularity of each mouse, more than 20 glomeruli per mouse were individually examined and averaged.
Kidneys and spleens of NZB/W mice were embedded in OCT compound (Sakura Finetek, Torrance, CA, USA) and snap-frozen in liquid nitrogen. Frozen sections were fixed in acetone and blocked with 10% normal donkey serum (Sigma Aldrich). Kidney sections were stained with a 1:200 dilution of anti-IgG-biotin (Sigma Aldrich), anti-IgM-biotin (Southern Biotech) and anti-C3-biotin (Bioss), followed by reaction with 1:200-dilution of streptavidin-cy3 (Invitrogen). Spleen sections were stained with anti-GL7-FITC, anti-CD4-APC, and anti-IgD-PE (all from BD Biosciences or eBioscience). Fluorescence images were acquired using a TCS SP5 confocal microscope (Leica). The area of GCs composed with GL7^+ cells per image was calculated using ImageJ software (NIH, Bethesda, MD, USA).
Titers of anti-dsDNA IgG Ab were measured by ELISA, as described previously. In brief, sera were diluted 1/10 000 to 1/50 000 in PBS and applied to immunosorbent plates (Nunc) precoated with 5 μg/ml poly-L-lysine and 5 μg/ml thymic DNA (Sigma Aldrich). The serum containing the highest titer of anti-dsDNA IgG was serially diluted and used as standard. The plates were incubated with anti-mouse IgG-biotin (Sigma Aldrich) and streptavidin-HRP (BD Biosciences). The concentration of albumin in urine was measured by quantitative ELISA using a mouse albumin ELISA kit (Bethyl), according to the manufacturer’s instructions. The concentration of serum B-cell activating factor of the TNF family (BAFF) was quantitated using a BAFF/BLys/TNFSF13B ELISA Kit (R&D Systems).
Single-cell suspensions of spleen and LN cells were prepared as previously described. Joint tissues from hind paws of KSTA mice were dissected free of soft tissue and bones, digested with 100 μg/ml Liberase (Roche) for 45 min at 37 °C, and filtered through a 70-μm-pore cell strainer (SPL Life Sciences) to prepare single cell suspensions of synovial infiltrates. The single cell suspensions were stained with an appropriate combination of mAbs and analyzed by FACS. The mAbs used were: CD138-PE, B220-PerCP or -APC-cy7, FAS-PE, CD19-PerCP or -APC, CD21-FITC or -APC, CD43-APC, CD23-PE-cy7, CD8a-PE, CD25-APC-cy7, CXCR5-biotin, GL7-FITC, CD45.2-FITC, CD27-FITC, Ki-67-FITC, Gr-1-FITC, CD4-FITC or -APC-cy7, phospho-Syk-PE, CD11b-PE or -PerCP, PD-1-APC, CD44-APC-cy7, and F4/80-PerCP mAbs (all from BD Biosciences, eBioscience or Biolegend). Streptavidin-PerCP was purchased from BD Biosciences.
Splenic CD19^+ B cells from NZB/W mice were sorted by MACS, and lysed with Trizol reagent (Invitrogen) followed by standard methods of total RNA purification. The RNA was assayed by RT and quantitative PCR as described. […]

SMILES | IC50 [1] [nM] | IL-6 production ([2]; CpG ODN 2006 plus IFN-α) | Ab production ([2]; CpG ODN plus IL-2) | Proliferation and death of primary B and T cells [3] | Body weights ([4]; 18-34 weeks of age) | Spleen weights ([4]; 18-34 weeks of age) | Serum anti-dsDNA IgG Ab titer ([4]; trend to reduction at 26 and 30 weeks of age)
COc1cc(Nc2ncc(F)c(Nc3ccc4c(n3)NC(=O)C(C)(C)O4)n2)cc(OC)c1OC [R406, reference compound] | 18.8 |  |  |  |  |  | 
C[C@@H]1CCN(C(=O)CC#N)C[C@@H]1N(C)c1ncnc2[nH]ccc12 [tofacitinib, reference compound] |  | even increased IL-6 production | minimal effect | did not significantly inhibit | reduced both body weights and spleen weights | reduced both body weights and spleen weights | did not reach statistical significance
